From patent US20050009924A1 (priority 2003, published 2005)
Where two headings read alike, the source gives them in different places. Values belong to the compound of their own block, whether it stands above or below them.

Columns and labels:
[1] = test system: transcriptional activity of hTERT; experiment: SEAP reporter assay of hTERT expression, PhTERT-SEAP (H1299); format: cell-based, human; details: for Relative SEAP activity (%): hTERT-H1299
How it was run: (§1)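 SEAP activity, read as rate of 405 nm absorbance rise with 12 mM p-nitrophenyl phosphate in diethanolamine/MgCl2/homoarginine buffer after 65 °C, 10 min heat inactivation, reports hTERT or CMV promoter activity. G418-selected stable H1299 or hTERT-BJ1 reporter lines were exposed to drug for 24 h.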

human hepatoma G2 cells = experiment: Cytotoxicity assay (XTT colorimetric), Hep G2; format: cell-based; details: 48 h of drug exposure
[2] = test system: iron-induced lipid peroxidation in rat brain homogenates; experiment: Iron-induced lipid peroxidation in rat brain homogenates; details: 10 mM; relative percentage of inhibition (Table 1)
[3] = MTT relative viability, PhTERT-SEAP (hTERT-BJ1) cells; details: human
[4] = MTT relative viability, PCMV-SEAP (hTERT-BJ1) cells; format: cell-based; details: human, stable PCMV-SEAP reporter clone
Excerpt: Culture media were changed every 3 days. […] The stable clones were selected using G418.

[5] = test system: transcriptional activity of hTERT; experiment: SEAP reporter assay of hTERT expression, PhTERT-SEAP (hTERT-BJ1); format: cell-based, human; details: hTERT-BJ1
How it was run: as §1

rat glioma C6 cells = experiment: Cytotoxicity assay (XTT colorimetric), C6 cells; format: cell-based; details: 48 h of drug exposure
CMV promoter = experiment: SEAP reporter assay of CMV promoter activity, PCMV-SEAP (hTERT-BJ1); format: cell-based; details: Homo sapiens, read-out: Relative SEAP activity (%)
[6] = MTT relative viability, PhTERT-SEAP (H1299) cells; details: human
[7] = test system: hepatitis B virus transfected hepatoma cell lines, HepG 2.2.15 cells; experiment: Cytotoxicity assay, 2.2.15 cells; format: cell-based, human; details: 48 h of drug exposure
[8] = test system: non-small-cell lung cancer cells H1299

melting point: 297 to 299 °C
SMILES: COc1ccc(CSc2cccc3c2C(=O)c2cccc(SCc4ccc(OC)cc4)c2C3=O)cc1 [IIj, 1,5-Bis(p-methoxybenzylthio)-Anthraquinone]
activity at 2.2 µM ([1]; Homo sapiens, NCI-H1299, 2.2 μM, H1299, read-out: Relative SEAP activity (%)): 92 ± 3.3%
activity at 22 µM ([1]; Homo sapiens, NCI-H1299, 22 μM, H1299, read-out: Relative SEAP activity (%)): 96 ± 8.5%
activity at 220 µM ([1]; Homo sapiens, NCI-H1299, 220 μM, H1299, read-out: Relative SEAP activity (%)): 88 ± 5.6%
IC50 (human hepatoma G2 cells; Homo sapiens, HepG2): 28.6 ± 1.2 µM
LP (%) (10 mM) [2]: 67 ± 2.9%
viability at 48 h, 2.2 µM [3]: 119 ± 9.4%
viability at 48 h, 22 µM [3]: 98 ± 13.4%
viability at 48 h, 220 µM [3]: 62 ± 6.4%
viability at 48 h, 2 µM ([4]; 2.0 μM): 116 ± 13%
viability at 48 h, 22 µM ([4]; 22 μM): 67 ± 18%
viability at 48 h, 220 µM ([4]; 220 μM): 52 ± 7%
activity at 2.2 µM ([5]; Homo sapiens, 2.2 μM, read-out: Relative SEAP activity (%)): 142 ± 27.7%
activity at 22 µM ([5]; Homo sapiens, 22 μM, read-out: Relative SEAP activity (%)): 141 ± 22.6%
activity at 220 µM ([5]; Homo sapiens, 220 μM, read-out: Relative SEAP activity (%)): 118 ± 19.2%
IC50 (rat glioma C6 cells; Rattus norvegicus, C6): 25.1 ± 2.8 µM
activity at 2 µM (CMV promoter; 2.0 μM): 103 ± 15%
activity at 22 µM (CMV promoter; 22 μM): 102 ± 8%
activity at 220 µM (CMV promoter; 220 μM): 100 ± 8%
viability at 48 h, 2.2 µM [6]: 89 ± 6.1%
viability at 48 h, 22 µM [6]: 59 ± 5.4%
viability at 48 h, 220 µM [6]: 42 ± 0.3%

SMILES: O=C1c2cccc(NCCO)c2C(=O)c2cccc(NCCO)c21 [IVb, 1,5-Bis(ethanolamino)anthraquinone]
Relative SEAP activity (%) ([1]; 3.0 μM): 91 ± 3.9%
Relative SEAP activity (%) ([1]; 30 μM): 88 ± 4.5%
Relative SEAP activity (%) ([1]; 308 μM): 5.7 ± 1.1%
IC50 (human hepatoma G2 cells): > 20 µM
IC50 [7]: 19.3 µM
Relative MTT viability (%) (hTERT-BJ1 cells; 3 µM): 116 ± 5.6%
Relative MTT viability (%) (hTERT-BJ1 cells; 30 µM): 90 ± 26.9%
Relative MTT viability (%) (hTERT-BJ1 cells; 308 µM): 69 ± 18.7%
Relative MTT viability (%) ([8]; 3 µM): 105 ± 6.3%
Relative MTT viability (%) ([8]; 30 µM): 88 ± 9.1%
Relative MTT viability (%) ([8]; 308 µM): 53 ± 2.8%
Relative SEAP activity (%) ([5]; 3.0 μM): 45 ± 20.6%
Relative SEAP activity (%) ([5]; 30 μM): 16 ± 13.1%
Relative SEAP activity (%) ([5]; 308 μM): 11 ± 11.6%
IC50 (rat glioma C6 cells): > 20 µM

SMILES: O=C1c2cccc(NCCNCCO)c2C(=O)c2cccc(NCCNCCO)c21 [IVe, 1,5-Bis[2-(2-Aminoethylamino)ethanol]anthraquinone]
Relative SEAP activity (%) ([1]; 2.4 μM): 87 ± 3.8%
Relative SEAP activity (%) ([1]; 24 μM): 43 ± 5.5%
Relative SEAP activity (%) ([1]; 242 μM): 40 ± 6.7%
IC50 (human hepatoma G2 cells): 1.2 ± 0.02 µM
IC50 [7]: 8.35 µM
Relative MTT viability (%) (hTERT-BJ1 cells; 2.4 µM): 84 ± 19.8%
Relative MTT viability (%) (hTERT-BJ1 cells; 24 µM): 60 ± 11.2%
Relative MTT viability (%) (hTERT-BJ1 cells; 242 µM): 44 ± 12.9%
Relative MTT viability (%) ([8]; 2.4 µM): 97 ± 8.7%
Relative MTT viability (%) ([8]; 24 µM): 37 ± 3.9%
Relative MTT viability (%) ([8]; 242 µM): 11 ± 4.1%
Relative SEAP activity (%) ([5]; 2.4 μM): 60 ± 11.6%
Relative SEAP activity (%) ([5]; 24 μM): 40 ± 17.3%
Relative SEAP activity (%) ([5]; 242 μM): 52 ± 19.1%
IC50 (rat glioma C6 cells): 1.17 µM

SMILES: O=C1c2cccc(NCCCO)c2C(=O)c2cccc(NCCCO)c21 [IVh, 1,5-Bis(propanolamino)anthraquinone]
Relative SEAP activity (%) ([1]; 2.8 μM): 88 ± 4.9%
Relative SEAP activity (%) ([1]; 28 μM): 69 ± 5.4%
Relative SEAP activity (%) ([1]; 282 μM): 33 ± 2.2%
IC50 (human hepatoma G2 cells): > 20 µM
IC50 [7]: > 20 µM
Relative MTT viability (%) (hTERT-BJ1 cells; 2.8 µM): 72 ± 7.4%
Relative MTT viability (%) (hTERT-BJ1 cells; 28 µM): 39 ± 10.5%
Relative MTT viability (%) (hTERT-BJ1 cells; 282 µM): 26 ± 15.9%
Relative MTT viability (%) ([8]; 2.8 µM): 107 ± 5.0%
Relative MTT viability (%) ([8]; 28 µM): 49 ± 3.5%
Relative MTT viability (%) ([8]; 282 µM): 40 ± 10.4%
Relative SEAP activity (%) ([5]; 2.8 μM): 41 ± 12.5%
Relative SEAP activity (%) ([5]; 28 μM): 0 ± 22.1%
Relative SEAP activity (%) ([5]; 282 μM): (−3) ± 10.0^ %
IC50 (rat glioma C6 cells): > 20 µM

SMILES: O=C1c2cccc(NCCCCO)c2C(=O)c2cccc(NCCCCO)c21 [IVk, 1,5-Bis(butanolamino-)-anthraquinone]
Relative SEAP activity (%) ([1]; 2.6 μM): 89 ± 4.9%
Relative SEAP activity (%) ([1]; 26 μM): 71 ± 9.8%
Relative SEAP activity (%) ([1]; 265 μM): 27 ± 2.0%
IC50 (human hepatoma G2 cells): > 20 µM
IC50 [7]: 10.3 ± 0.24 µM
Relative MTT viability (%) (hTERT-BJ1 cells; 2.6 µM): 101 ± 10.5%
Relative MTT viability (%) (hTERT-BJ1 cells; 26 µM): 101 ± 8.8%
Relative MTT viability (%) (hTERT-BJ1 cells; 265 µM): 91 ± 11.8%
Relative MTT viability (%) ([8]; 2.6 µM): 114 ± 8.1%
Relative MTT viability (%) ([8]; 26 µM): 110 ± 7.1%
Relative MTT viability (%) ([8]; 265 µM): 16 ± 3.4%
Relative SEAP activity (%) ([5]; 2.6 μM): 114 ± 20.5%
Relative SEAP activity (%) ([5]; 26 μM): 113 ± 21.6%
Relative SEAP activity (%) ([5]; 265 μM): 127 ± 19.9%
IC50 (rat glioma C6 cells): > 20 µM
